Earlier results in patent publication US20160075995A1, “SWEAT GLAND-DERIVED STEM CELLS AND METHODS OF USE” (priority 2014, published 2016).

How the values were obtained:
[1] = published reports
[2] = DMSO

c1cc(-c2cnn3cc(-c4ccc(OCCN5CCCCC5)cc4)cnc23)ccn1 [dorsomorphin]
toxicity [1]: low toxicity
solubility [2]: soluble in DMSO
